# Reference: patent US7973219B2, “Method for producing transgenic plants resistant to weed control compounds which disrupt the porphyrin pathways of plants” (Sumitomo Chemical Company, Limited, priority 1998, dated 2011)
# Like-named read-outs stand apart in the source and are kept apart here.
# Key:
# [1] = test system: tobacco into which bchH gene was introduced; test: Leaf piece chlorophyll test, tobacco into which bchH gene was introduced; type: in vivo; settings: Nicotiana tabacum, read-out: Resistant level to test compound; for activity at 0.3 ppm: 0.30 ppm
# Procedure: (§1) Then, according to the method described in Manual for Gene Manipulation of Plant (by Hirofumi UCHIMIYA, Kodan-sha Scientific, 1992), the gene was introduced into tobacco. Agrobacterium strain bearing plasmid pBIBCH was cultured at 28° C. overnight in LB medium and then leaf pieces of tobacco cultured sterilely were dipped in the liquid culture medium. The leaf pieces were cultured at room temperature for 2 days in Murashige-Skoog medium (MS-medium, described in Murasige T. and Skoog F., Physiol. Plant. (1962) 15, p 473) containing 0.8% agar, 0.1 mg/liter naphthalene acetic acid and 1.0 mg/liter benzyl aminopurine. Then, the leaf pieces were washed with sterilized water and cultured for 7 days on MS medium containing 0.8% agar, 0.1 mg/liter naphthalene acetic acid, 1.0 mg/liter benzyl aminopurine and 500 μg/ml cefotaxime. The leaf pieces were transplanted onto MS medium containing 0.8% agar, 0.1 mg/liter naphthalene acetic acid, 1.0 mg/liter benzyl aminopurine, 500 μg/ml cefotaxime and 100 μg/ml kanamycin (hereinafter referred to as selective MS medium) and cultured on the medium continuously for 4months with transplanting the tobacco leaf pieces onto fresh selective MS medium every 1 month. During culture, stem-leaf differentiated shoots were appeared from the tobacco leaf pieces, these shoots were transplanted to MS medium containing 0.8% agar, 300 μg/ml cefotaxime and 50 μg/ml kanamycin to induce roots to obtain regenerated plants. The resultant regenerated plant was transplanted and cultured on MS medium 0.8% agar and 50 μg/ml kanamycin to obtain tobacco plant into which bchH gene was introduced. Similarly, tobacco leaf pieces were infected with Agrobacterium strain bearing pNO to obtain regenerated plant from the tobacco leaf pieces and tobacco plant (hereinafter referred to as control recombinant tobacco).
# (§2) The tobacco leaves into which bchH gene was introduced and control recombinant tobacco leaves obtained in Example 5 were collected and each leaf was divided into the right and left equivalent pieces along the main vein, respectively. To one piece was applied an aqueous solution containing 0.3 ppm PPO inhibitory-type herbicidal compound of Structure 8, while, to the other piece was not applied the compound. These leaf pieces were placed on MS medium containing 0.8% agar and allowed to stand at room temperature for 7 days in light place. Then, each leaf piece was ground with pestle and mortar in 5 ml of 80% aqueous acetone solution to extract chlorophyll. The extract liquid was diluted with 80% aqueous acetone solution and the absorbance was measured at 750 nm, 663 nm and 645 nm to calculate total chlorophyll content according to the method described by Macknney G., J. Biol. Chem. (1941) 140, p 315. The results obtained from 4 clones of tobacco into which bchH gene was introduced (BCH1 to 4) and control recombinant tobacco is shown in Table 4. In the table, the resistant level to the herbicidal compound was represented by percentages of the total chlorophyll content of leaf pieces treated with herbicidal compound to that of untreated leaf pieces.
# (§3) The tobacco clone into which bchH gene was introduced and control recombinant tobacco were also treated in the same manner with the solution containing PPO inhibitory-type herbicidal compound represented by the above Structure 3, 7, 10, 11, 13, 17, 23, 24, 25, 27, 28, 30 or 35, and the resistant level to each herbicidal compound was measured. In the table, the resistant levels to the herbicidal compound were represented by percentages of the total chlorophyll content of leaf pieces treated with the herbicidal compound to that of untreated leaf pieces.
# [2] = test system: control recombinant tobacco; test: Leaf piece chlorophyll test, control recombinant tobacco; type: in vivo; settings: Nicotiana tabacum, read-out: Resistant level to test compound; for activity at 0.3 ppm: 0.30 ppm
# Procedure: as §1, §2, §3
# The level of resistance to PPO inhibitory type herbicidal compound represented by Structure 8 was confirmed quantitatively by testing tobacco into which the gene encoding the variant soybean PPO prepared in Example 13 was introduced according to the same manner as in Example 6. […]
# [3] = bchH recombinant tobacco, treated vs untreated leaf pieces, Table 5
# [4] = control recombinant tobacco, treated vs untreated leaf pieces, Table 5
Structure (SMILES),"activity at 10 ppm [1, 3] [%]","activity at 10 ppm [2, 4] [%]","activity at 0.3 ppm [1, 3] [%]","activity at 0.3 ppm [2, 4] [%]",further results
CCOC(=O)C(C)OC(=O)c1cc(Oc2ccc(C(F)(F)F)cc2Cl)ccc1[N+](=O)[O-] (stereo not drawn) [Structure 3],114,9.94,–,–,–
O=[N+]([O-])c1ccc(Oc2c(Cl)cc(Cl)cc2Cl)cc1 [Structure 7],–,–,–,–,"activity at 30 ppm ([1]; bchH recombinant tobacco, 30 ppm, treated vs untreated leaf pieces, Table 5): 89.3%; activity at 30 ppm ([2]; control recombinant tobacco, 30 ppm, treated vs untreated leaf pieces, Table 5): 8.62%"
CCCCCOC(=O)COc1cc(N2C(=O)C3=C(CCCC3)C2=O)c(F)cc1Cl [Structure 10],84,14.9,–,–,–
C#CCN1C(=O)COc2cc(F)c(N3C(=O)C4=C(CCCC4)C3=O)cc21 [Structure 11],–,–,78.1,5.51,–
C#CCN1C(=O)COc2cc(F)c(-n3c(=O)cc(C(F)(F)F)n(C)c3=O)cc21 [Structure 17],–,–,80.4,14.3,–
C#CCOc1cc(-n2nc3n(c2=O)CCCC3)c(Cl)cc1Cl [Structure 23],–,–,–,–,"activity at 3 ppm ([1]; bchH recombinant tobacco, 3.0 ppm, treated vs untreated leaf pieces, Table 5): 106%; activity at 3 ppm ([2]; control recombinant tobacco, 3.0 ppm, treated vs untreated leaf pieces, Table 5): 5.58%"
C#CCOc1cc(-n2nc(C(C)(C)C)oc2=O)c(Cl)cc1Cl [Structure 24],129,5.18,–,–,–
CC(C)Oc1cc(-n2nc(C(C)(C)C)oc2=O)c(Cl)cc1Cl [Structure 25],104,16,–,–,–
CCOC(=O)COc1cc(-n2ncc(C(F)(F)F)c(C)c2=O)c(F)cc1Cl [Structure 27],86.8,16.8,–,–,–
C#CCOc1cc(-n2ncc(C(F)(F)F)c(C)c2=O)c(F)cc1Cl [Structure 28],–,–,72.2,8.79,–
CCOC(=O)COc1cc(-c2nn(C)c(OC(F)F)c2Cl)c(F)cc1Cl [Structure 30],–,–,–,–,activity at 3 ppm [1]: 102%; activity at 3 ppm [2]: 4.24%
C#CCN1C(=O)COc2cc(F)c(-c3cnc(C(F)(F)F)n(C)c3=O)cc21 [Structure 35],–,–,83.3,17.4,–
